The source of these data is paper PMC12517105 (Toxicology Reports, 2025).

Read-outs that look alike come from different tables or passages of the source.

Data set [1] deals with ALI-HBECs. Further details: species or system human. As to conditions: for Absorption into cells / Fraction of parent metabolites that are M1: optimization dataset. The source says: A dosimetry model was developed to contextualize how PAHs interact with ALI-HBECs during exposure (Fig. 1). The model describes the time course dosimetry of two PAHs: […] Model parameters for cell and media compartments were characterized based on measurements for the ALI-HBEC culture system described by […] Technologies (Table 2). […] [28], [67]. We initially modeled parent and metabolite transport among compartments as passive diffusion using ordinary differential equations. […] Consistent with these previous observations, we observed induction of CYP1A1 activity as measured by P450-GloTM (see Results). […] CYP1A1 activity was included as a coefficient of the rate of metabolism for PAH parent which could be triggered by an induction switch. The switch allows for metabolism induction to be turned on or off in future uses of the model. When turned off, the CYP term is set to 1 and the rate of metabolism behaves as described above. […] Parameters were optimized against the optimization UPLC dataset. Parent absorption and metabolism were optimized together against data for BAP in cells. Parent permeability and volatilization were optimized together against data for BAP in media. […] All model parameters and CYP1A1 rational function coefficients were optimized using a maximum log likelihood objective with the Nelder-Mead algorithm and starting values set by visual inspection. The model was built in R version 4.4.2 (R Foundation for Statistical Computing, Vienna, Austria) using the RMagnolia R package version 1.3.15 (https://www.magnoliasci.com/rmagnolia/). The Akaike Information Criterion (AIC) was used for selecting the best model fit for CYP1A1 activity, inclusion of metabolism induction, and inclusion of active efflux. The final model with metabolism induction and active efflux of the metabolite was validated by comparison to data collected in the validation UPLC dataset.

For data set [2], the system named is genes related to xenobiotic metabolism and transport in ALI-HBECs. Kind of data set: RNA-sequencing, differentially expressed xenobiotic transport and metabolism genes. It counts as cell-based, human. The conditions noted are these: 24 h, by at least one BAP treatment vs vehicle control. The method, then:
(§1) Cells were collected from inserts and lysed with RLT lysis buffer with 1 % β-mercaptoethanol using the RNeasy Mini Kit (Qiagen, Hilden, Germany) and stored at −80 °C. RNA was isolated from cell lysate using the RNeasy Mini Kit per the manufacturer’s protocol and was quantified on a Synergy HTX (BioTek, Winooski, VT, USA) plate reader equipped with a Take3 module (BioTek, Winooski, VT, USA). […] For library construction, mRNA was poly-A selected and libraries were prepared as previously described by Dasgupta et al.. High quality reads with a sequencing length greater than 150 bp were annotated and mapped to the human reference genome GRCh38.p14 using HISAT2, count tables were generated with feature Counts, and differential expression was conducted using the DESeq2 R package version 1.46.0 compared to vehicle control, [64]. In vehicle exposed samples, the fragment per kilobase million (FPKM) was calculated for each gene, and genes with an FPKM > 1 were considered constitutively expressed, [102], [114]. Genes associated with xenobiotic metabolism and transport were identified by pathway enrichment analysis in MetaCore (GeneGo, Thomson Reuters, Carlsbad, CA) and by literature search.

The test system of data set [3] is CYP1A1. Kind of data set: RNA-sequencing, differential expression of CYP1A1. It counts as cell-based, human. As to conditions: 24 h, BAP 0.076-3 µg/cm^2, vs vehicle control. The method, then: as §1
The test system of data set [4] is ALI-HBECs. Kind of data set: Mass balance experiments: BAP and metabolites in cell, media and mucus fractions by UPLC. It counts as in vitro ADME, human. Here is the method: (§2) Normal HBECs (Lonza, Basel, Switzerland) were expanded to passage 4 in PneumaCult™-Ex Plus medium and transferred to 12-well plates with 12 mm transwell inserts ([…] Technologies, Vancouver, BC, Canada) and 30,000 cells per insert or 24-well plates with 6.5 mm transwell inserts ([…] Technologies, Vancouver, BC, Canada) and 9000 cells per insert for differentiation at the ALI using PneumaCult™-ALI medium. Cells were cultured at the ALI for 25 days at 37°C and 5 % CO2 with media changes every 2–3 days and mucus washes using DPBS on the apical surface once a week starting at 14 days post air-lifting to maintain healthy ALI cultures. Just before exposure, media was changed and ALI-HBECs were apically washed with DPBS or ALI media to remove mucus.
(§3) Glass pipettes were used for all collection and extraction steps to reduce loss of compound from binding to plastic. ALI media was used instead of DPBS for all rinse and collection steps due to interference with the fluorescence detector. At each timepoint, basal media was collected and the bottom of the insert rinsed, the apical surface was washed and rinses collected, and cells were collected by scraping with a stainless-steel spatula and rinsed from the insert. All collected fractions were flash frozen in liquid nitrogen and stored at −80°C.
(§4) For Phase 2 metabolite analysis, samples were incubated with β-glucuronidase to deconjugate glucuronide and […] metabolites following methods described by Combie et al.. For cell fractions, 0.1 mm glass beads were added to the sample and placed in a Next Advance Bullet Blender™ 24 (Troy, NY) for 3 min to fully lyse cells and increase recovery. All cell, media, and mucus samples were transferred to amber glass vials and adjusted to pH 5 with acetic acid. β-glucuronidase reconstituted in water was added to samples at 5000 U/mL, and samples were incubated at 65°C for 3 h. Samples were allowed to cool to room temperature before continuing with extractions.
(§5) All samples were spiked with DBC as an internal standard for a final concentration of 2.5 μM to correct compound recovery for extraction efficiency. Cell fractions not previously incubated with β-glucuronidase were lysed by blending with 0.1 mm glass beads. All cell, media, and mucus samples were transferred to glass vials, vortexed and sonicated in ethyl acetate, and incubated for 2 h at −20°C to precipitate any protein. Samples were centrifuged at 2000 rcf for 10 min, and the ethyl acetate supernatant was collected. This was repeated for a total of three rounds. Ethyl acetate was evaporated to dryness under nitrogen gas, samples were reconstituted in 100 μL ACN, and samples were stored at −80°C.
(§6) Glucuronide metabolite formation was estimated as the difference between samples incubated with and without β-glucuronidase at similar timepoints.

Experiment in data set [5]: as above
It counts as in vitro ADME, human. As to conditions: human. Here is the method: as §2, §3, §4, §5, §6

For data set [6], the system named is CYP1A1. The data set can be described thus: CYP1A1 activity, P450-Glo CYP1A1 Assay in ALI-HBECs. The conditions noted are these: BAP 2.26 µg/cm^2, 0-48 h. It counts as cell-based, human.
Procedure: CYP1A1 activity was measured in ALI-HBECs using the P450-Glo™ CYP1A1 Assay System (Promega, Madison, WI). The protocol was adapted to assess CYP1A1 activity in ALI-HBECs. Luciferin-CEE solution was diluted in DPBS, ALI-HBEC basal media was replaced with DPBS, and 50 µL of Luciferin-CEE solution was added to the apical surface. […] Luminescence was recorded on a Synergy HTX plate reader. Cell viability was measured using the CellTiter-Glo® (CTG) Luminescent Cell Viability Assay (Promega, Madison, WI) per manufacturer’s protocol, and luminescence was recorded on a Synergy HTX plate reader. Background luminescence was subtracted from all data, and CYP1A1 activity was normalized to cell viability for each sample.
Setting [7] is: parent parameter, No Metabolism Induction.
Setting [8] is: parent parameter, With Metabolism Induction.
Setting [9] is: M1 parameter, Active Efflux model.
Setting [10] is: M1 parameter, Active Efflux model, set as parent value.
Where [11] appears, read: M1 parameter, Passive Diffusion model.
[12] abbreviates: M1 parameter, Passive Diffusion model, set as parent value.

For the compound `c1ccc2c(c1)cc1ccc3cccc4ccc2c1c34` [BAP, Benzo[a]pyrene], in the data set on ALI-HBECs [1] (setting [7]), the Volatilization from media stood at 0.00436 h⁻¹ and the Absorption into cells is 0.47 h⁻¹. Further, in the data set with ALI-HBECs [1] (setting [8]), the Volatilization from media worked out at 0.00185 h⁻¹ and the Absorption into cells was determined as 0.24 h⁻¹. Moreover, in data set [2], the “number of genes related to xenobiotic metabolism significantly differentially expressed” value amounted to 38 genes and the “number of genes related to xenobiotic transport significantly differentially expressed” value came out at 8 genes. The “CYP1A1 average induction (mRNA)” value in the data set with CYP1A1 [3] came to 12.6 fold. Besides, the “time by which BAP was cleared from cells” value in the data set on ALI-HBECs [4] (after exposure) is reported as at most 48 h. Also, the “time before BAP started releasing into the media fraction” value with ALI-HBECs [4] (optimization dataset) is above 4 h. The “average BAP recovery at 0 h (amount)” value with ALI-HBECs [4] (optimization dataset, BAP 2.26 µg/cm^2) is 8.6 nmol. In addition, in the data set with ALI-HBECs [4] (validation dataset, BAP 4.67 µg/cm^2), the “average BAP recovery at 0 h (amount)” value came out at 16.8 nmol. Besides, in data set [5], the recovery at 0 h, 2.26 µg/cm^2 was 85.2% and the recovery at 0 h, 4.67 µg/cm^2 is 87.5%. Moreover, the “time of maximum CYP1A1 activity” value in the data set with CYP1A1 [6] stood at 8 h.

On to `OC1C=Cc2c(cc3ccc4cccc5ccc2c3c45)C1O` (centres unmarked) [7,8-dihydrodiol, BAP-7,8-dihydrodiol], for which, in the data set on ALI-HBECs [1] (setting [9]), the “Active efflux into media” value was 0.000869 L/h, the “Active efflux into mucus” value came out at 0.000445 L/h, the Clearance by metabolism was 0.79 L/hr/kg^3/4 and the “Fraction of parent metabolites that are M1” value was found to be 0.099. Moreover, in the data set on ALI-HBECs [1] (setting [10]), the Volatilization from media is 0.00185 h⁻¹ and the Volatilization from mucus amounted to 0.00185 h⁻¹. In addition, in the data set on ALI-HBECs [1] (setting [11]), the Clearance by metabolism came out at 3.93 L/hr/kg^3/4, the Permeability of cells worked out at 16.9 ×10⁻⁶ cm/s and the “Fraction of parent metabolites that are M1” value was 0.022. Also, in the data set with ALI-HBECs [1] (setting [12]), the Volatilization from media came out at 0.00185 h⁻¹ and the Volatilization from mucus stood at 0.00185 h⁻¹. Further, the “Fraction of M1 formed from parent metabolites” value in the data set with ALI-HBECs [1] (model temporarily optimized to the validation set (BAP 4.67 µg/cm^2)) is reported as 0.05.
